Reference: US6608082B1, “Treatment of erectile dysfunction using isoquinoline compound melanocortin receptor ligands” (Lion Bioscience AG, priority 1998, dated 2003)

The molecules below were run against T1, MCR-1 (Homo sapiens, UniProt Q01726) (assay: Melanocortin receptor binding assay, competition with 125I-HP 467, HEK 293 cells expressing hMCR-1). Details: competition with 125I-HP 467, HEK 293 cells expressing MCR-1; read-out: MC-1 IC50.
T1 construct: expressed in transfected cells; host or cells: HEK 293
T1 sequence (Q01726 whole entry): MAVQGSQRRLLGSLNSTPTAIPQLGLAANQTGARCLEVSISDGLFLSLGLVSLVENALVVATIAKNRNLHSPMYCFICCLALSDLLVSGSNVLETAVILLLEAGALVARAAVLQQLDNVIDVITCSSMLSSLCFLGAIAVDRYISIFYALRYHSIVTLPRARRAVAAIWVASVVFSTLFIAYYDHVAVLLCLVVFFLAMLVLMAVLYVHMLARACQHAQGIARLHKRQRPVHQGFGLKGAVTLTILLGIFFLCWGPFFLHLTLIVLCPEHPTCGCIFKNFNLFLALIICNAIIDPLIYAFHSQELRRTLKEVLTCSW
Summary of the method: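 Intact-cell competition binding, 2.5 hr at 37 °C, in PBS/10% calf serum/1 mM CaCl2; hMCR-4 cells at 4×10^3 per tube, hMCR-1 cells at 2×10^4 per tube. Filtration on BSA/CaCl2-soaked GF/B, cold 50 mM Tris pH 7.4 washes, scintillation count.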

IC50 [nM] | Compound
390 | CCNc1ccc(C2C(CN)c3ccccc3CN2CCCCC(CN)NCCc2ccc(OC)cc2)cc1 (stereo not shown) [TRG 2411-65]
110 | CCNc1ccc(C2C(CN)c3ccccc3CN2CCCCC(CN)NCc2ccccc2)cc1 (stereo not shown) [TRG 2411-66]
210 | CCNc1ccc(C2C(CN)c3ccccc3CN2CCCCC(CN)NCc2ccc(Cl)cc2)cc1 (stereo not shown) [TRG 2411-67]
120 | CCNc1ccc(C2C(CN)c3ccccc3CN2CCCCC(CN)NCc2ccc(OC)cc2)cc1 (stereo not shown) [TRG 2411-68]
370 | CCNc1ccc(C2C(CN)c3ccccc3CN2CCCCC(CN)NCCc2ccc3ccccc3c2)cc1 (stereo not shown) [TRG 2411-69]
160 | CCNc1ccc(C2C(CN)c3ccccc3CN2CCCCC(CN)NCCC2CCCCC2)cc1 (stereo not shown) [TRG 2411-70]
390 | CCNc1ccc(C2C(CN)c3ccccc3CN2CCCCC(CN)NCCN)cc1 (stereo not shown) [TRG 2411-71]
250 | CCCCNc1ccc(C2C(CNCCc3ccccc3)c3ccccc3CN2CCCCC(N)CN)cc1 (stereo not shown) [TRG 2411-72]
190 | CCCCNc1ccc(C2C(CNCCc3ccccc3)c3ccccc3CN2CCCCC(CN)NC)cc1 (stereo not shown) [TRG 2411-73]
310 | CCCCNc1ccc(C2C(CNCCc3ccccc3)c3ccccc3CN2CCCCC(CN)NCCN)cc1 (stereo not shown) [TRG 2411-85]
60 | CCCCNc1ccc(C2C(CNC3CCCCC3)c3ccccc3CN2CCCCC(CN)N2CCCC2)cc1 (stereo not shown) [TRG 2411-89]
640 | CCCCNc1ccc(C2C(CNC3CCCCC3)c3ccccc3CN2CCCCC(CN)NCCc2ccc(Br)cc2)cc1 (stereo not shown) [TRG 2411-91]
300 | CCCCNc1ccc(C2C(CNC3CCCCC3)c3ccccc3CN2CCCCC(CN)NCCc2ccc(OC)cc2)cc1 (stereo not shown) [TRG 2411-92]
130 | CCCCNc1ccc(C2C(CNC3CCCCC3)c3ccccc3CN2CCCCC(CN)NCc2ccccc2)cc1 (stereo not shown) [TRG 2411-93]
130 | CCCCNc1ccc(C2C(CN)c3ccccc3CN2CCCCC(CN)NC)cc1 (stereo not shown) [TRG 2411-100]
100 | CCCCNc1ccc(C2C(CN)c3ccccc3CN2CCCCC(CN)NCC)cc1 (stereo not shown) [TRG 2411-101]
20 | CCCCNc1ccc(C2C(CN)c3ccccc3CN2CCCCC(CN)N2CCCC2)cc1 (stereo not shown) [TRG 2411-103]
370 | CCCCNc1ccc(C2C(CN)c3ccccc3CN2CCCCC(CN)NCCc2ccc(OC)cc2)cc1 (stereo not shown) [TRG 2411-106]
340 | CCCCNc1ccc(C2C(CN)c3ccccc3CN2CCCCC(CN)NCc2ccccc2)cc1 (stereo not shown) [TRG 2411-107]
500 | NC[C@@H](N)CCCN1Cc2ccccc2C(CNCCc2ccccc2)C1c1ccc(-c2ccccc2)cc1 (stereo partly shown) [TRG 2411-113]
760 | CNC(CN)CCCN1Cc2ccccc2C(CNCCc2ccccc2)C1c1ccc(-c2ccccc2)cc1 (stereo not shown) [TRG 2411-114]

IC50 [nM] | Compound
970 | CNCCNC(CN)CCCN1Cc2ccccc2C(CNCCc2ccccc2)C1c1ccc(-c2ccccc2)cc1 (stereo not shown) [TRG 2411-117]
350 | NCCNC(CN)CCCN1Cc2ccccc2C(CNCCc2ccccc2)C1c1ccc(-c2ccccc2)cc1 (stereo not shown) [TRG 2411-118]
370 | CNC(C)CNC(CN)CCCN1Cc2ccccc2C(CNCCc2ccccc2)C1c1ccc(-c2ccccc2)cc1 (stereo not shown) [TRG 2411-119]
1700 | NCC(CCCN1Cc2ccccc2C(CNCCc2ccccc2)C1c1ccc(-c2ccccc2)cc1)NCCO (stereo not shown) [TRG 2411-120]
1070 | CNC(CNC(CN)CCCN1Cc2ccccc2C(CNCCc2ccccc2)C1c1ccc(-c2ccccc2)cc1)Cc1ccccc1 (stereo not shown) [TRG 2411-121]
1540 | COCCNC(CN)CCCN1Cc2ccccc2C(CNCCc2ccccc2)C1c1ccc(-c2ccccc2)cc1 (stereo not shown) [TRG 2411-123]
1540 | CCCCNC(CN)CCCN1Cc2ccccc2C(CNCCc2ccccc2)C1c1ccc(-c2ccccc2)cc1 (stereo not shown) [TRG 2411-124]
820 | NCC(CCCN1Cc2ccccc2C(CNCCc2ccccc2)C1c1ccc(-c2ccccc2)cc1)NCC1CCCCC1 (stereo not shown) [TRG 2411-125]
1480 | CCNC(CN)CCCN1Cc2ccccc2C(CNC2CCCCC2)C1c1ccc(-c2ccccc2)cc1 (stereo not shown) [TRG 2411-127]
1570 | CNC(C)CNC(CN)CCCN1Cc2ccccc2C(CNC2CCCCC2)C1c1ccc(-c2ccccc2)cc1 (stereo not shown) [TRG 2411-128]
920 | CNC(CNC(CN)CCCN1Cc2ccccc2C(CNC2CCCCC2)C1c1ccc(-c2ccccc2)cc1)Cc1ccccc1 (stereo not shown) [TRG 2411-130]
230 | NCC(CCCN1Cc2ccccc2C(CNC2CCCCC2)C1c1ccc(-c2ccccc2)cc1)N1CCCC1 (stereo not shown) [TRG 2411-131]
1480 | NCC(CCCN1Cc2ccccc2C(CNC2CCCCC2)C1c1ccc(-c2ccccc2)cc1)NCC1CCCCC1 (stereo not shown) [TRG 2411-134]
1980 | NCC(CCCN1Cc2ccccc2C(CNC2CCCCC2)C1c1ccc(-c2ccccc2)cc1)NCc1ccccc1 (stereo not shown) [TRG 2411-135]
1620 | CNC(CN)CCCN1Cc2ccccc2C(CN)C1c1ccc(-c2ccccc2)cc1 (stereo not shown) [TRG 2411-137]
1270 | CCNC(CN)CCCN1Cc2ccccc2C(CN)C1c1ccc(-c2ccccc2)cc1 (stereo not shown) [TRG 2411-138]
1460 | NCC(CCCN1Cc2ccccc2C(CN)C1c1ccc(-c2ccccc2)cc1)NCCc1ccccc1 (stereo not shown) [TRG 2411-139]
1360 | CNCCNC(CN)CCCN1Cc2ccccc2C(CN)C1c1ccc(-c2ccccc2)cc1 (stereo not shown) [TRG 2411-140]
1150 | NCCNC(CN)CCCN1Cc2ccccc2C(CN)C1c1ccc(-c2ccccc2)cc1 (stereo not shown) [TRG 2411-141]
1220 | CNC(CNC(CN)CCCN1Cc2ccccc2C(CN)C1c1ccc(-c2ccccc2)cc1)Cc1ccccc1 (stereo not shown) [TRG 2411-144]

Same assay, conditions: inhibition of binding of 125I-HP 467, HEK 293 cells expressing MCR-1; read-out: MC-1 IC50

IC50 [nM] | Compound
220 | CCNc1ccc(C2C(CNCCc3ccccc3)c3ccccc3CN2CCCC(CN)NCCN)cc1 (stereo not shown) [TRG 2411-163]
90 | CCCCNC(CN)CCCN1Cc2ccccc2C(CNC2CCCCC2)C1c1ccc(NCC)cc1 (stereo not shown) [TRG 2411-165]
40 | CCNc1ccc(C2C(CNC3CCCCC3)c3ccccc3CN2CCCC(CN)N2CCCC2)cc1 (stereo not shown) [TRG 2411-166]
230 | CCNc1ccc(C2C(CNC3CCCCC3)c3ccccc3CN2CCCC(CN)NCCc2ccc(OC)cc2)cc1 (stereo not shown) [TRG 2411-168]
130 | CCNc1ccc(C2C(CNC3CCCCC3)c3ccccc3CN2CCCC(CN)NCc2ccc(Cl)cc2)cc1 (stereo not shown) [TRG 2411-170]
150 | CCNc1ccc(C2C(CNC3CCCCC3)c3ccccc3CN2CCCC(CN)NCc2ccc(OC)cc2)cc1 (stereo not shown) [TRG 2411-171]
220 | CCNc1ccc(C2C(CNC3CCCCC3)c3ccccc3CN2CCCC(CN)NCCc2ccc3ccccc3c2)cc1 (stereo not shown) [TRG 2411-172]
290 | CCNc1ccc(C2C(CN)c3ccccc3CN2CCCC(CN)NC)cc1 (stereo not shown) [TRG 2411-175]
110 | CCCCNC(CN)CCCN1Cc2ccccc2C(CN)C1c1ccc(NCC)cc1 (stereo not shown) [TRG 2411-177]
110 | CCNc1ccc(C2C(CN)c3ccccc3CN2CCCC(CN)NCCc2ccc(OC)cc2)cc1 (stereo not shown) [TRG 2411-181]
200 | CCNc1ccc(C2C(CN)c3ccccc3CN2CCCC(CN)NCc2ccccc2)cc1 (stereo not shown) [TRG 2411-182]
130 | CCNc1ccc(C2C(CN)c3ccccc3CN2CCCC(CN)NCc2ccc(Cl)cc2)cc1 (stereo not shown) [TRG 2411-183]
60 | CCNc1ccc(C2C(CN)c3ccccc3CN2CCCC(CN)NCCN)cc1 (stereo not shown) [TRG 2411-187]
130 | CCCCNc1ccc(C2C(CNCCc3ccccc3)c3ccccc3CN2CCCC(N)CN)cc1 (stereo not shown) [TRG 2411-188]
120 | CCCCNc1ccc(C2C(CNCCc3ccccc3)c3ccccc3CN2CCCC(CN)NC)cc1 (stereo not shown) [TRG 2411-189]
80 | CCCCNc1ccc(C2C(CNCCc3ccccc3)c3ccccc3CN2CCCC(CN)NCc2ccc(Cl)cc2)cc1 (stereo not shown) [TRG 2411-197]
120 | CCCCNc1ccc(C2C(CNCCc3ccccc3)c3ccccc3CN2CCCC(CN)NCc2ccc(OC)cc2)cc1 (stereo not shown) [TRG 2411-198]
170 | CCCCNc1ccc(C2C(CNCCc3ccccc3)c3ccccc3CN2CCCC(CN)NCCc2ccc3ccccc3c2)cc1 (stereo not shown) [TRG 2411-199]

IC50 [nM] | Compound
300 | CCCCNc1ccc(C2C(CNCCc3ccccc3)c3ccccc3CN2CCCC(CN)NCCN)cc1 (stereo not shown) [TRG 2411-201]
220 | CCCCNc1ccc(C2C(CNC3CCCCC3)c3ccccc3CN2CCCC(N)CN)cc1 (stereo not shown) [TRG 2411-202]
170 | CCCCNc1ccc(C2C(CNC3CCCCC3)c3ccccc3CN2CCC[C@@H](CN)NC)cc1 (stereo partly shown) [TRG 2411-203]
150 | CCCCNc1ccc(C2C(CNC3CCCCC3)c3ccccc3CN2CCCC(CN)NCC)cc1 (stereo not shown) [TRG 2411-204]
250 | CCCCNc1ccc(C2C(CNC3CCCCC3)c3ccccc3CN2CCCC(CN)NCCCC)cc1 (stereo not shown) [TRG 2411-205]
190 | CCCCNc1ccc(C2C(CNC3CCCCC3)c3ccccc3CN2CCCC(CN)NCCc2ccccc2)cc1 (stereo not shown) [TRG 2411-207]
100 | CCCCNc1ccc(C2C(CNC3CCCCC3)c3ccccc3CN2CCCC(CN)NCc2ccc(Cl)cc2)cc1 (stereo not shown) [TRG 2411-211]
80 | CCCCNc1ccc(C2C(CNC3CCCCC3)c3ccccc3CN2CCCC(CN)NCCC2CCCCC2)cc1 (stereo not shown) [TRG 2411-214]
110 | CCCCNc1ccc(C2C(CN)c3ccccc3CN2CCCC(N)CN)cc1 (stereo not shown) [TRG 2411-216]
90 | CCCCNc1ccc(C2C(CN)c3ccccc3CN2CCCC(CN)NC)cc1 (stereo not shown) [TRG 2411-217]
380 | CCCCCNc1ccc(C2C(CNCCc3ccccc3)c3ccccc3CN2CCCCC(CN)NC)cc1 (stereo not shown) [TRG 2412-1]
470 | CCCCCNc1ccc(C2C(CNCCc3ccccc3)c3ccccc3CN2CCCCC(CN)NCCc2ccccc2)cc1 (stereo not shown) [TRG 2412-2]
360 | CCCCCNc1ccc(C2C(CNCCc3ccccc3)c3ccccc3CN2CCCCC(CN)NCc2ccccc2)cc1 (stereo not shown) [TRG 2412-3]
490 | CCOc1ccc(C2C(CNCCc3ccccc3)c3ccccc3CN2CCCCC(CN)NCCc2ccccc2)cc1 (stereo not shown) [TRG 2412-5]
590 | CCOc1ccc(C2C(CNCCc3ccccc3)c3ccccc3CN2CCCCC(CN)NCc2ccccc2)cc1 (stereo not shown) [TRG 2412-6]
420 | CCCOc1ccc(C2C(CNCCc3ccccc3)c3ccccc3CN2CCCCC(CN)NC)cc1 (stereo not shown) [TRG 2412-7]
830 | CCCOc1ccc(C2C(CNCCc3ccccc3)c3ccccc3CN2CCCCC(CN)NCCc2ccccc2)cc1 (stereo not shown) [TRG 2412-8]
